Target: SARS-CoV virus 3CL protease protein (Severe acute respiratory syndrome coronavirus, UniProt P0C6X7)
Assay: biochemical
Assay type: binding

## CN(C)CCCSc1ccccc1NC(=O)C=Cc1ccccc1 [cinanserin, 2′-(3-dimethylaminopropylthio)cinnamanilide]
  kd: 0.00993 s⁻¹
read-out: ka
  kon: 38600 M⁻¹ s⁻¹

Reference: patent US7662860B2 (priority 2003, dated 2010)
